{"source": "patent US12534707B2", "about": "“Method for generating cardiac tissue mimetics” (GENOME BIOLOGICS UG, priority 2019, dated 2026)", "key": {"[1]": {"tested_on": "cardiac tissue mimetics (CTMs)", "assay": "mRNA expression in CTMs (qPCR of titin isoforms, bulk RNA sequencing)", "assay_type": "cell-based, rat, human", "method": "CTMs, heart tissues of neonatal pups and adult rats were collected into Lysing Matrix D tubes (MP Biomedical; 6913-500) and 700 μL of TriFast (VWR; 3010-100ML) was added. Cells and tissues were homogenized 3 times for 20 s following by 5 min. pause on ice. Total RNA was purified with the Direct-zol™ RNA MicroPrep kit (Zymo Research; R2060). The RNA concentration was determined by measuring absorption at 260 nm and 280 nm with the NanoDrop® ND 2000-spectrophotometer (Peq Lab).\ncDNA was synthesized from 500 ng of total RNA with EcoDry Premix RNA to cDNA (Random Hexamers) (Clontech; 639546). qPCR was performed using 10 μL of iTaq™ Universal SYBR® Green Supermix (Bio-Rad; 172-5124), 1 μL of 10 μmol/L forward and reverse primer each, 1 μL of cDNA template and 7 μL of H2O in a Bio-Rad CFX96 Connect Real-Time PCR system. Primers using to quantify mRNA expression were ordered from Metabion (Table 2).\nBulk RNA sequencing was performed as previously described (J. U. G. Wagner, E. Chavakis, E. M. Rogg, M. Muhly-Reinholz, S. F. Glaser, S. Gunther, D. John, F. Bonini, A. M. Zeiher, L. Schaefer, M. J. Hannocks, R. A. Boon, S. Dimmeler, 2018, Arterioscler Thromb Vasc Biol 38(5), 1170-1177). […] Sequencing was performed on the NextSeq500 instrument (IIlumina) using v2 chemistry, resulting in minimum of 30M reads per library with 1×75 bp single end setup. […]"}, "[2]": {"tested_on": "cardiac tissue mimetics (CTMs)", "assay": "Fluorescence immunohistochemistry of CTMs (α-actinin, WGA, Atp5a1)", "assay_type": "cell-based, rat, human", "description": "Cryosections of CTMs were stained with DAPI, anti-α-Actinin and Alexa Flour conjugate of Wheat-Germ-Agglutinin. Area of 100 cardiomyocytes per condition were quantified using ImageJ. In case of whole mount stainings, CTMs were permeabilized with 0.2% Triton® X-100 in PBS for 1 hour at room temperature followed by blocking with 5% horse serum (Sigma-Aldrich) in PBS for 30 minutes at room temperature. Primary antibodies (see Table 1) were diluted 1:200 in 5% horse serum and incubated over night at 4° C. Before using the secondary antibody (see table below), CTMs were washed three times with PBS containing 1% Tween 20 and 0.002% Triton® X-100 (referred as PBT from here after) for 20 minutes at room temperature. Secondary antibodies (1:500) and DAPI (1:1000; Carl-Roth GmbH & Co. KG) were diluted in 5% horse serum together and incubated for 4 hours at room temperature in the dark. […] Cryo-sections were prepared by embedding fixed spheroids in O.C.T medium (Tissue-Tek), snap-freezing them in liquid nitrogen and cutting them in 10 μm thick sections. Sections were permeabilized and blocked for one hour in 0.1% Triton® X100 (in PBS+BSA). Primary antibody incubated with the sections diluted 1:50-1:100 in 1 mM MgCl2, 1 mM CaCl2, 0.1 mM MnCl2, 1% Triton® X-100 or 0.2% saponin over night at 4° C. […]"}, "[3]": {"tested_on": "cardiac tissue mimetics (CTMs)", "assay": "CTM vascularisation (GFP-HUVEC sprout length, thickness, branch points)", "assay_type": "cell-based, rat, human", "details": "200 μM PE, 10 days, vs control; for filopodia formation in CTMs: FIG. 13; for vascularization / angiogenesis of CTMs: FIGS. 13, 14, 36"}, "[4]": {"tested_on": "cardiac tissue mimetics (CTMs)", "assay": "CTM size measurement", "details": "200 μM PE, 10 days, vs untreated control; FIG. 4"}, "[5]": {"tested_on": "cardiac tissue mimetics (CTMs)", "assay": "Contractility measurement of CTMs (spontaneous beats per minute; pacing at 1 Hz and 15 V)", "details": "PE-treated vs control, electric pacing 1 Hz; FIG. 8"}, "[6]": {"tested_on": "cardiac tissue mimetics (CTMs)", "assay": "Lactate dehydrogenase assay and toxicity assay (phospho-Histone H2A.X) of CTMs", "assay_type": "cell-based, rat, human", "description": "Media of CTMs were replaced completely with fresh medium 24 h before performing the assays. After 24 h, supernatants were collected and in maximum 50 μL of each supernatant was used for every measurement with the Lactate Dehydrogenase Activity Kit (Sigma; MAK066). To determine enzyme activity, the absorbance at 450 nm (A450) was measured with the CLARIOstar plate reader (BMG Labtech). LDH activity were calculated following the manufacturer's instruction. CTMs that incubated with 0.2% H2O2 in medium for 30 minutes at 37° C. served as positive control."}, "[7]": {"tested_on": "cardiac tissue mimetics (CTMs)", "assay": "Seahorse assay (OCR, ECAR) of CTMs", "assay_type": "cell-based, rat, human", "details": "PE-treated vs control CTMs", "description": "The Agilent Seahorse XFe96 spheroid microplate was coated with Poly-D Lysine 100 μg/mL following the manual instruction. 1×KHB medium (111 mM NaCl, 4.7 mM KCl, 2 mM MgSO4, 1.2 mM Na2HPO4, 2.5 mM D-Glucose, 0.5 mM carnitine) supplemented with 6 mM D-Glucose was prepared prior the experiment. CTMs were washed twice with KHB medium and every single CTM was then transferred directly into each well of XFe96 spheroid microplate containing 175 μL of KHB medium. CTMs were centered into the micro-chamber and incubated at 37° C. in non-CO2 incubator for 1 hour. The Seahorse XF Cell Mito Stress Test was performed using sequential injection of Oligomycin (2.5 μM, Sigma, O4876), FCCP (2.0 μM, Sigma, C2920) and Antimycin A (0.5 μM, Sigma, A8674) following a 3-min-mixing and 3-min-measuring cycles for up to 2 hours. Oxygen consumption rate (OCR) and Extracellular acidification rate (ECAR) were measured and calculated using Seahorse XFe96 Analyzers (Agilent Technologies)."}, "[8]": {"tested_on": "CTMs obtained from human iPSC", "assay": "Stress response of CTMs obtained from human iPSC (contraction frequency, volume, lactate)", "assay_type": "cell-based", "details": "200 μM PE", "description": "After 10 days of culture, CTMs were treated with 200 μM Phenylephrine (PE), and in parallel, were cultured under conditions of hypoxia (3% O2). Videos of contracting CTMs were recorded for 1 min and analysed to observe the response. The contraction frequency was measured at day 3 (to obtain a short-term response) and day 20 (to obtain a long-term response). […] Human iPS cardiomyocytes (hiPS-CMs) were ordered from Fujifilm CDI and thawed before the culture. Human cardiac fibroblasts (hCFB) were cultured and trypsinized. The two cell types were mixed at a CM:FB ratio of 5:1 in plating medium (PM provided by CDI). The mixed cells were left to form cardiac tissue mimetics in 30 μL hanging drops containing PM with a density of 5000 hiPS-CMs and 1000 hCFB and incubated at 37° for four days. The cardiac tissue mimetics were then collected, and every single cardiac tissue mimetic was again distributed into each well of ultra-low-attachment (ULA) plates with maintenance medium (MM; provided by CDI). MM was changed every two days. After seven days, human IPS endothelial cells (hiPS-ECs) were thawed and added into each well at a CM:EC ratio of 2:1. A mixed medium of MM and EC growth medium (EGM; provided by CDI) at a 1:1 ratio was used and half of the medium was changed every second day. After 10 days cardiac tissue mimetics were harvested for further assays."}, "HUVEC spheroids": {"tested_on": "HUVEC spheroids", "assay": "Spheroid-based angiogenic sprouting assay", "assay_type": "cell-based, human", "method": "After 72 hours, cell culture supernatants were centrifuged (500×g, 5 minutes) to deplete dead cells and stored at −80° C.\nEndothelial cell sprouting was studied by in vitro spheroid-based angiogenesis assays. In brief, HUVECs were trypsinized and transferred into a mixture of fully supplemented EBM™ and methylcellulose (80%:20%). […] After 24 hours, spheroids were collected, pelleted (200×g, 3 minuted), resuspended in methylcellulose supplemented with FCS (80%:20%) and embedded in a collagen Type-I gel (Corning; 354236). HUVEC spheroids were then either cultured with fully supplemented EBM (+/−VEGF (50 ng/mL; BioLegend; 583702) or +/−PE (200 μM)), maintenance medium or conditioned cell culture medium."}}, "note": "Entries after “also recorded” stand apart in the source; their conditions may differ."}
{"smiles": "CNC[C@H](O)c1cccc(O)c1", "note": "[PE, phenylephrine]", "values": [{"measurement": "KEGG gene sets for adrenergic signaling, metabolism and contractility", "setting": "[1]; PE stimulation vs untreated CTMs, FIG. 33", "result": "enrichment and elevated expression"}, {"measurement": "titin isoform mRNA expression (N2B, N2BA2)", "setting": "[1]; PE-treated vs control CTMs, FIG. 6", "result": "shift towards adult-type titin isoform expression"}, {"measurement": "cardiomyocyte maturation and hypertrophy (sarcomeric α-actinin staining, sarcomere organization and density)", "setting": "[2]; 200 μM PE, 10 days, vs control, FIGS. 5-7", "result": "significantly increased"}, {"measurement": "mitochondrial function and mitochondrial density", "setting": "[2]; PE-treated vs control CTMs, Atp5a1 staining, FIGS. 9-12", "result": "increased"}, {"measurement": "filopodia formation in CTMs", "setting": "[3]", "result": "more filopodia"}, {"measurement": "filopodia formation in CTMs", "setting": "[3]; listed as phenylephrine", "result": "induces"}, {"measurement": "number of branch points in CTMs", "setting": "[3]; FIG. 14", "result": "increased"}, {"measurement": "tube length (accumulated sprout length) in CTMs", "setting": "[3]; FIG. 14", "result": "increased"}, {"measurement": "tube thickness in CTMs", "setting": "[3]; FIG. 14", "result": "increased"}, {"measurement": "vascularization / angiogenesis of CTMs", "setting": "[3]", "result": "significantly augmented"}, {"measurement": "vascularization / angiogenesis of CTMs", "setting": "[3]; listed as phenylephrine", "result": "induces"}, {"measurement": "CTM growth (size as volume)", "setting": "[4]", "result": "significantly increased"}, {"measurement": "contractile amplitude in paced CTMs", "setting": "[5]", "result": "significant increase; also recorded: augment"}, {"measurement": "extracellular lactate dehydrogenase (LDH) as marker of necrosis", "setting": "[6]; mature CTMs with PE vs untreated control, FIG. 35", "result": "failed to reveal differences"}, {"measurement": "cytotoxicity in CTMs (p-γ-H2AX staining, LDH activity)", "setting": "[6]; phenylephrine-treated mature CTMs, FIGS. 34 and 35", "result": "no cytotoxicity"}, {"measurement": "glycolysis (basal extracellular acidification rate)", "setting": "[7]; FIG. 11", "result": "reduction"}, {"measurement": "oxidation metabolism (oxygen consumption rate)", "setting": "[7]; FIGS. 9-10", "result": "increased"}, {"measurement": "contraction frequency", "setting": "[8]; day 3, FIG. 41", "result": "significantly increased"}, {"measurement": "volume of the CTMs", "setting": "[8]; day 3, FIG. 42", "result": "no significant change"}, {"measurement": "lactate concentration in culture media", "setting": "[8]; day 3, FIG. 43", "result": "significant increase"}, {"measurement": "contraction frequency", "setting": "[8]; day 20, FIG. 41", "result": "significantly increased"}, {"measurement": "lactate concentration in culture media", "setting": "[8]; day 20, FIG. 43", "result": "significant increase"}, {"measurement": "volume of the CTMs", "setting": "[8]; day 20, vs control, FIG. 42", "result": "significant increase"}, {"measurement": "EC spheroid growth / vascular network growth and branching (cumulative sprout length), direct treatment", "setting": "HUVEC spheroids; HUVEC spheroids, 200 μM PE or 50 ng/mL VEGF, 24 hours, FIG. 15", "result": "did not impact"}, {"measurement": "EC growth and sprouting with conditioned medium of PE-stimulated CM", "setting": "HUVEC spheroids; neonatal rat CM treated with PE 72 hours, supernatant on HUVEC spheroids 24 hours, FIG. 17", "result": "significantly increase"}, {"measurement": "EC sprouting with conditioned medium of PE-stimulated FB", "setting": "HUVEC spheroids; neonatal rat FB treated with PE 72 hours, supernatant on HUVEC spheroids 24 hours, FIG. 38", "result": "no effect"}]}
